Literature values as cited in patent US20090181887A1, “USE OF A GLP-1 MOLECULE FOR TREATMENT OF BILIARY DYSKINESIA AND/OR BILIARY PAIN/DISCOMFORT” (Gastrotech Pharma A/S, priority 2005, published 2009).
Where no end group is shown, it is not given here.

Details: in man; Wettergren et al, 1993; Gutniak et al, 1996

**Q.** With “glucagon-like peptide-1 (HAEGTFTSDVSSYLEGQAAKEFIAWLVKGR-NH2; ends and bridges not checked; UniProt P01275 98-127, looked up) [GLP-1, gastrointestinal peptide hormone; natural forms GLP-1 (7-36)amide and GLP-1 (7-37)]” as the substance, how does the “slowing of gastric emptying” value read?
**A.** Its value is 50%.
